Patent US4160016A, “Receptor fluorescent immunoassay” (Syva Company, priority 1977, dated 1979)
Values joined by “and” are separate entries in the source; they are usually repeats but may differ in a detail not shown here. Equal values may be shown once.

Legend:
Type in all cases: biochemical
Anti-Morphine [1] = experiment: Fluorescence assay for codeine with morphine-fluorescein conjugate (Ex. V) and antimorphine (Table 2)
Description: The following tables indicate the results.

[2] = system: Anti-Fluorescein and Anti-Morphine; experiment: Table I fluorescence readings: fluorescein-morphine with antifluorescein and/or anti-morphine, with and without codeine
Description: In order to establish the utility of the subject compounds, the following assays were carried out. […] The fluorometer employed was a Perkin-Elmer MPF-2a. Antibodies to the fluorescers had been prepared according to normal procedures. The bovine serum albumin conjugates were injected into sheep, and after appropriate periods of time, the antibodies harvested according to conventional techniques. For typical methods of obtaining antibodies, see Microbiology, Hober Medical Division, Harper and Rowe, 1969; Landsteiner, Specificity of Seriological Reactions, Dover Publications, New York, 1962; Kabat, et al, supra; and Williams, et al, Methods in Immunology and Immunochemistry, Vol. 1, Academic Press, New York, 1967.
(§1) The reagents which were employed were as follows: FLUMO (fluorescein-morphine conjugate, Example V) was 3× 10^-6 M in water; antifluorescein was 5.6× 10^-6 M in binding sites, in water, 0.05M phosphate, pH 8.0; anti-morphine was 2× 10^-4 M in binding sites, 0.05M tris-HCl, pH 8.0, in saline solution; buffer was Tris/saline 0.05M/l, pH 8,0. Opiate solutions had 1,000 μg/ml of codeine. The solution was then diluted to a final volume of 4 ml with buffer.
(§2) All of the determinations were made at a sensitivity setting on the instrument of 4. Excitation light was 460 nm and the emitted light read at 516 nm, with a band width of 10 nm.
(§3) Where a reading is given but the absence of any material is indicated, only buffer was present in the cell. The reading times indicate the interval of time from the time of the first reading to the reading for the result which is reported, the first reading being made within as short an interval as possible of the mixing.

Anti-Morphine [3] = experiment: Fluorescence quenching of fluorescein-morphine by anti-morphine alone (Table I, cell No. 3); settings: for Signal Intensity: fluorescein-morphine 5 μl + anti-morphine 5 μl
Description: as §1, §2, §3

COc1ccc2c3c1O[C@H]1[C@@H](O)C=C[C@H]4[C@@H](C2)N(C)CC[C@@]341 [Codeine, codeine, reference compound]
fluorescence quenched by the anti-morphine that is recovered with the addition of codeine (Anti-Morphine [1]): about 30% | Fluorescence Signal (Anti-Morphine [1]; Ex. V + anti-morphine + codeine 1.9 × 10^-7 M): 62.5 arbitrary units | Fluorescence Signal (Anti-Morphine [1]; Ex. V + anti-morphine + codeine 6.7 × 10^-7 M): 64.5 arbitrary units | Fluorescence Signal (Anti-Morphine [1]; Ex. V + anti-morphine + codeine 9.5 × 10^-8 M): 61 arbitrary units | concentration of codeine detectible (Anti-Morphine [1]; with the particular materials employed): about 10^-7 | change in signal intensity ([2]; cell No. 1, codeine added to mixture of the two antibodies, over 90 minutes): 0.5 units | change in signal intensity ([2]; cell No. 3, both antibodies with codeine and fluorescein-morphine, over 90 minutes): 6.5 units | Signal Intensity ([2]; codeine 5 μl + anti-fluorescein + anti-morphine, no fluorescein-morphine, 90 min, cell No. 1): 6 | Signal Intensity ([2]; codeine 5 μl + anti-fluorescein + anti-morphine, no fluorescein-morphine, first reading, cell No. 1): 5.5 | Signal Intensity ([2]; codeine 5 μl added to fluorescein-morphine + anti-fluorescein + anti-morphine, 90 min, cell No. 3): 16 | Signal Intensity ([2]; codeine 5 μl added to fluorescein-morphine + anti-fluorescein + anti-morphine, first reading, cell No. 3): 20 | change in fluorescence ([2]; codeine introduced into mixture of fluorescein-morphine and antibodies to fluorescein and morphine): a detectable change in fluorescence is obtained

CN1CC[C@]23c4c5ccc(OCC(=O)Nc6ccc7c(c6)C6(OC7=O)c7ccc(O)cc7Oc7cc(O)ccc76)c4O[C@H]2[C@@H](O)C=C[C@H]3[C@H]1C5 [Ex. V]
Signal Intensity (Anti-Morphine [3]; 5 min): 35 | Signal Intensity (Anti-Morphine [3]; first reading): 35.5 | reduction in signal intensity (Anti-Morphine [3]; fluorescein-morphine combined with antimorphine): approximately 25% | Fluorescence Signal (Anti-Morphine [1]; Ex. V 1.9 × 10^-8 M alone): 79 arbitrary units | change in signal intensity ([2]; cell No. 2, no codeine, in the first 5 minutes): 1.5 units | change in signal intensity ([2]; cell No. 2, no codeine, over 90 minutes): 2.5 units | Signal Intensity ([2]; fluorescein-morphine 5 μl + anti-fluorescein 5 μl + anti-morphine 5 μl, first reading, cells No. 2 and 3): 25 and 23 | Signal Intensity ([2]; fluorescein-morphine 5 μl + anti-fluorescein 5 μl, cell No. 2): 21 | Signal Intensity ([2]; fluorescein-morphine 5 μl alone, buffer pH 8.0, ex 460 nm, em 516 nm, cells No. 2 and 3): 62 and 46 | Signal Intensity ([2]; fluorescein-morphine + anti-fluorescein + anti-morphine (5 μl each), 5 min, cells No. 2 and 3): 26.5 and 22.5 | Signal Intensity ([2]; fluorescein-morphine + anti-fluorescein + anti-morphine (5 μl each), 90 min, cell No. 2): 27.5
